Reference: patent publication US4698352A, “4-oxo-1,4-dihydronicotinic acid derivatives, salts thereof, and antibacterial agents containing the same” (Toyama Chemical Co., Ltd., priority 1982, dated 1987)
In brackets after ≈: the same amount, converted by molar mass. Read-outs that look alike come from different tables or passages of the source.

Key:
Assay in all cases: Antibacterial activity (MIC), agar dilution
Type in all cases: cell-based
E. coli TK-111 = conditions: Escherichia coli, TK111, 20 h, E. coli TK-111; 10^6 cells per ml; 37° C., 20 hours; read-out: MIC
Excerpt: (§1) The amount of bacteria inoculated was 10^4 cells per plate (10^6 cells per ml).

E. coli NIHJ JC-2 = conditions: Escherichia coli, NIHJJC2, 20 h
Excerpt: as §1

Pro. vulgaris GN3027 = conditions: Proteus vulgaris, GN3027, 20 h, Pro. vulgaris GN3027; 10^6 cells per ml; 37° C., 20 hours; read-out: MIC
Excerpt: as §1

Pro. morganii T-216 = conditions: Morganella morganii, 37° C.
Excerpt: as §1

Ps. aeruginosa S-68 = conditions: Pseudomonas aeruginosa
Excerpt: as §1

St. aureus FDA209P = conditions: Staphylococcus aureus, FDA209P, 20 h
Excerpt: as §1

Kl. pneumoniae Y-50 = conditions: Klebsiella pneumoniae, Y50, 20 h, 10^6 cells per ml, 37° C., read-out: MIC
Excerpt: as §1

Pro. mirabilis T-111 = conditions: Proteus mirabilis, 37° C.
Excerpt: as §1

Kl. pneumoniae Y-41 = conditions: Klebsiella pneumoniae, Y41, 10^6 cells per ml, 37° C., 20 hours, read-out: MIC
Excerpt: as §1

Ps. aeruginosa IFO3445 = conditions: Pseudomonas aeruginosa
Excerpt: as §1

Ent. cloacae IID977 = conditions: Enterobacter cloacae, IID977, 20 h
Excerpt: as §1

Aci. antitratus A-6 = conditions: 20 h
Excerpt: as §1

Ps. aeruginosa GN918** = conditions: Pseudomonas aeruginosa, Ps. aeruginosa GN918, cephalospolinase-producing, 10^6 cells per ml
Excerpt: as §1
(§2) ** Cephalospolinase-producing bacteria

Pro. vulgaris GN76** = conditions: Proteus vulgaris
Excerpt: as §1, §2

E. coli GN5482** = conditions: Escherichia coli, 20 h; E. coli GN5482, cephalospolinase-producing; 10^6 cells per ml; read-out: MIC
Excerpt: as §1, §2

Kl. pneumoniae Y-4* = conditions: Klebsiella pneumoniae, 20 h, Kl. pneumoniae Y-4, penicillinase-producing; 10^6 cells per ml; read-out: MIC
Excerpt: as §1
(§3) * Penicillinase-producing bacteria

Ps. aeruginosa GN3379* = conditions: Pseudomonas aeruginosa, Ps. aeruginosa GN3379, penicillinase-producing, 10^6 cells per ml
Excerpt: as §1, §3

E. coli TK-3* = conditions: Escherichia coli, 20 h
Excerpt: as §1, §3

St. aureus F-137* = conditions: Staphylococcus aureus, 20 h
Excerpt: as §1, §3

[1] = E. coli NIHJ JC-2, 10^6 cells per ml, 37° C., 20 hours, read-out: MIC
[2] = St. aureus FDA209P, 10^6 cells per ml, 37° C., 20 hours, read-out: MIC
[3] = Ps. aeruginosa IFO3445, 10^6 cells per ml, 37° C., 20 hours, read-out: MIC
[4] = Ent. cloacae IID977, 10^6 cells per ml, 37° C., 20 hours, read-out: MIC
[5] = Aci. antitratus A-6, 10^6 cells per ml, 37° C., 20 hours, read-out: MIC
[6] = 20 h, Pro. vulgaris GN76, cephalospolinase-producing, 10^6 cells per ml, read-out: MIC
[7] = E. coli TK-3, penicillinase-producing, 10^6 cells per ml, read-out: MIC
[8] = St. aureus F-137, penicillinase-producing, 10^6 cells per ml, read-out: MIC
[9] = S68, Ps. aeruginosa S-68, 10^6 cells per ml, 37° C., 20 hours, read-out: MIC
[10] = T216, 10^6 cells per ml, 20 hours, read-out: MIC

Compound | MIC (E. coli TK-111) [µg/mL] | MIC (E. coli NIHJ JC-2; [1]) [µg/mL] | MIC (Pro. vulgaris GN3027) [µg/mL] | MIC (Pro. morganii T-216; T216, 20 h, 10^6 cells per ml) [µg/mL] | MIC (St. aureus FDA209P; [2]) [µg/mL] | MIC (Kl. pneumoniae Y-50) [µg/mL] | MIC (Pro. mirabilis T-111; T111, 20 h, 10^6 cells per ml) [µg/mL] | MIC (Kl. pneumoniae Y-41) [µg/mL] | MIC (Ps. aeruginosa IFO3445; [3]) [µg/mL] | MIC (Ent. cloacae IID977; [4]) [µg/mL] | MIC (Aci. antitratus A-6; [5]) [µg/mL] | MIC (Ps. aeruginosa GN918**; GN918, 20 h) [µg/mL] | MIC (Pro. vulgaris GN76**; [6]) [µg/mL] | MIC (E. coli GN5482**) [µg/mL] | MIC (Kl. pneumoniae Y-4*) [µg/mL] | MIC (E. coli TK-3*; [7]) [µg/mL] | MIC (St. aureus F-137*; [8]) [µg/mL] | MIC (Ps. aeruginosa S-68; [9]) [µg/mL] | MIC (Ps. aeruginosa GN3379*; 20 h, read-out: MIC) [µg/mL] | MIC (Ps. aeruginosa GN918**; 20 h, read-out: MIC) [µg/mL] | also measured
O=C(O)c1cn(-c2ccc(O)cc2)c(-c2ccc(N3CCCC3)cc2)cc1=O | 0.2 (≈ 0.531 µM) | 0.39 (≈ 1.04 µM) | 0.2 (≈ 0.531 µM) | 1.56 (≈ 4.14 µM) | 0.2 (≈ 0.531 µM) | 0.78 (≈ 2.07 µM) | 1.56 (≈ 4.14 µM) | 1.56 (≈ 4.14 µM) | 6.25 (≈ 16.6 µM) | 0.78 (≈ 2.07 µM) | ≤ 0.05 | 1.56 (≈ 4.14 µM) | 0.78 (≈ 2.07 µM) | ≤ 0.05 | 3.13 (≈ 8.32 µM) | 0.78 (≈ 2.07 µM) | 0.1 (≈ 0.266 µM) |  |  |  | MIC (Ps. aeruginosa S-68; S68, 20 h): 3.13 µg/mL (≈ 8.32 µM); MIC (Ps. aeruginosa GN3379*; GN3379, 20 h): 3.13 µg/mL (≈ 8.32 µM)
Cc1nc(-c2ccc(-c3cc(=O)c(C(=O)O)cn3-c3ccc(F)cc3)cc2)cs1 | 0.39 (≈ 0.96 µM) | 1.56 (≈ 3.84 µM) | 1.56 (≈ 3.84 µM) | 3.13 (≈ 7.7 µM) | 0.2 (≈ 0.492 µM) | 3.13 (≈ 7.7 µM) | 6.25 (≈ 15.4 µM) | 6.25 (≈ 15.4 µM) | 25 (≈ 61.5 µM) |  | 0.1 (≈ 0.246 µM) | 3.13 (≈ 7.7 µM) |  | 0.78 (≈ 1.92 µM) | 25 (≈ 61.5 µM) |  | 0.2 (≈ 0.492 µM) | 12.5 (≈ 30.8 µM) | 25 (≈ 61.5 µM) |  | MIC (Ent. cloacae IID977): 6.25 µg/mL (≈ 15.4 µM); MIC (Pro. vulgaris GN76**; GN76, 20 h): 3.13 µg/mL (≈ 7.7 µM); MIC (E. coli TK-3*): 3.13 µg/mL (≈ 7.7 µM)
Cc1nc(-c2ccc(-c3cc(=O)c(C(=O)O)cn3-c3ccc(O)cc3C)cc2)co1 | ≤ 0.05 | 0.1 (≈ 0.249 µM) | 0.39 (≈ 0.969 µM) | 3.13 (≈ 7.78 µM) | 0.1 (≈ 0.249 µM) | 0.2 (≈ 0.497 µM) | 1.56 (≈ 3.88 µM) | 1.56 (≈ 3.88 µM) |  | 0.39 (≈ 0.969 µM) | 0.39 (≈ 0.969 µM) |  | 0.78 (≈ 1.94 µM) | ≤ 0.05 | 3.13 (≈ 7.78 µM) | 0.2 (≈ 0.497 µM) | 0.1 (≈ 0.249 µM) |  | 6.25 (≈ 15.5 µM) | 0.78 (≈ 1.94 µM) | MIC (Ps. aeruginosa S-68; S68, 20 h): 3.13 µg/mL (≈ 7.78 µM); MIC (Ps. aeruginosa IFO3445; IFO3445, 20 h): 3.13 µg/mL (≈ 7.78 µM)
O=C(O)c1cn(-c2ccc(O)cc2)c(-c2ccc3sccc3c2)cc1=O | ≤ 0.05 | 0.2 (≈ 0.55 µM) | ≤ 0.05 |  |  | 0.2 (≈ 0.55 µM) |  | 0.78 (≈ 2.15 µM) | 1.56 (≈ 4.29 µM) | 0.78 (≈ 2.15 µM) | 0.1 (≈ 0.275 µM) |  | 0.2 (≈ 0.55 µM) | ≤ 0.05 | 0.78 (≈ 2.15 µM) | 0.39 (≈ 1.07 µM) | 0.39 (≈ 1.07 µM) | 3.13 (≈ 8.61 µM) | 1.56 (≈ 4.29 µM) | 0.39 (≈ 1.07 µM) | MIC (Pro. morganii T-216; [10]): 0.39 µg/mL (≈ 1.07 µM); MIC (Pro. mirabilis T-111; T111, 10^6 cells per ml, 20 hours, read-out: MIC): 0.78 µg/mL (≈ 2.15 µM)
Nc1ccc(-c2cc(=O)c(C(=O)O)cn2-c2ccc(F)cc2)cc1 | 0.39 (≈ 1.2 µM) | 0.78 (≈ 2.41 µM) | 0.2 (≈ 0.617 µM) |  |  | 0.39 (≈ 1.2 µM) | 6.25 (≈ 19.3 µM) | 3.13 (≈ 9.65 µM) | 6.15 (≈ 19 µM) | 1.56 (≈ 4.81 µM) |  | 3.13 (≈ 9.65 µM) | 0.78 (≈ 2.41 µM) | 0.2 (≈ 0.617 µM) | 6.25 (≈ 19.3 µM) | 0.78 (≈ 2.41 µM) |  | 12.5 (≈ 38.5 µM) | 25 (≈ 77.1 µM) |  | MIC (Pro. morganii T-216; [10]): 1.56 µg/mL (≈ 4.81 µM); MIC (St. aureus FDA209P): 3.13 µg/mL (≈ 9.65 µM); MIC (Aci. antitratus A-6): 3.13 µg/mL (≈ 9.65 µM); MIC (St. aureus F-137*): 3.13 µg/mL (≈ 9.65 µM)
O=C(O)c1cn(-c2ccc(F)cc2)c(-c2ccc(Cl)cc2)cc1=O | 1.56 (≈ 4.54 µM) |  | 0.39 (≈ 1.13 µM) |  | 6.25 (≈ 18.2 µM) | 3.13 (≈ 9.11 µM) | 12.5 (≈ 36.4 µM) | 12.5 (≈ 36.4 µM) | > 100 | 6.25 (≈ 18.2 µM) |  |  |  | 0.39 (≈ 1.13 µM) | 25 (≈ 72.7 µM) | 6.25 (≈ 18.2 µM) | 6.25 (≈ 18.2 µM) | 50 (≈ 145 µM) | 50 (≈ 145 µM) | 100 (≈ 291 µM) | MIC (E. coli NIHJ JC-2): 3.13 µg/mL (≈ 9.11 µM); MIC (Pro. morganii T-216; [10]): 6.25 µg/mL (≈ 18.2 µM); MIC (Aci. antitratus A-6): 3.13 µg/mL (≈ 9.11 µM); MIC (Pro. vulgaris GN76**; GN76, 20 h): 3.13 µg/mL (≈ 9.11 µM)
